Data reported in ChEMBL document CHEMBL1151292, “Antineoplastic activity and cytotoxicity of flavones, isoflavones, and flavanones” (1979).
Values after ≈ are worked out from the molar mass of the structure shown. Active and inactive are the calls of the source. Unless noted, the rule behind the calls is not given here.

Columns and labels:
CCRF S-180 = assay: In vivo antitumor activity against mouse S180 cells; format: functional, organism-based
Walker 256 = assay: In vivo antitumor activity against rat Walker 256 cells; format: functional, organism-based
L1210 = assay: In vivo antitumor activity against mouse L1210 cells; format: functional, organism-based
KB = assay: Cytotoxicity against human KB cells; format: functional; conditions: read-out: ED50 (the source's name)
P388 = assay: In vivo antitumor activity against mouse P388 cells; format: functional, organism-based
FV = assay: In vivo antitumor activity against mouse FV cells; format: functional, organism-based
[1] = test system: Lewis lung carcinoma cell line; assay: In vivo antitumor activity against mouse LLC cells; format: functional, organism-based
CA-755 = assay: In vivo antitumor activity against mouse CA-755 cells; format: functional, organism-based
PX = assay: In vivo antitumor activity against hamster PX cells; format: functional, organism-based; conditions: Cricetinae
P1 = assay: In vivo antitumor activity against hamster P1 cells; format: functional, organism-based; conditions: Cricetinae
Rattus norvegicus = assay: In vivo antitumor activity against rat dunning leukemia cells; format: functional, organism-based
P1798 = assay: In vivo antitumor activity against mouse P1798 cells; format: functional, organism-based
B16 = assay: In vivo antitumor activity against mouse B16 carcinoma cells; format: functional, organism-based

SMILES	Activity (CCRF S-180)	Activity (Walker 256)	Activity (L1210)	EC50 (KB)	Activity [1]	also measured
COc1ccc(-c2cc(=O)c3c(O)c(OC)c(O)cc3o2)cc1 [PECTOLINARIGENIN]	inactive	inactive	inactive	3 mg/L (≈ 9.55 µM)	–	Activity (P388): inactive
COc1ccc(-c2cc(=O)c3cc(OC)c(OC)c(OC)c3o2)cc1	inactive	inactive	–	5 mg/L (≈ 14.6 µM)	inactive	Activity (FV): inactive
CCOC1(O)C(=O)c2ccccc2OC1(OCC)c1ccccc1 (stereo unspecified)	–	inactive	inactive	–	–	–
O=c1c(O)c(-c2c(O)cccc2O)oc2ccccc12	inactive	–	inactive	> 100 mg/L	–	Activity (FV): inactive
COc1ccc(OC)c(-c2cc(=O)c3c(OC)c(OC)c(OC)c(OC)c3o2)c1	inactive	–	–	4 mg/L (≈ 9.94 µM)	–	Activity (FV): Active
COc1ccc(-c2cc(=O)c3c(OC)c(OC)c(OC)c(OC)c3o2)cc1 [TANGERETIN]	inactive	–	inactive	15 mg/L (≈ 40.3 µM)	–	Activity (CA-755): inactive; Activity (PX): Active; Activity (P1): inactive
COc1cc(O)c2c(=O)cc(-c3ccccc3)oc2c1 [TECHTOCHRYSIN]	–	–	inactive	49 mg/L (≈ 183 µM)	–	Activity (Rattus norvegicus): inactive; Activity (P1798): inactive
C[C@@H]1O[C@@H](OC[C@H]2O[C@@H](Oc3c(-c4ccc(O)c(O)c4)oc4cc(O)cc(O)c4c3=O)[C@H](O)[C@@H](O)[C@@H]2O)[C@H](O)[C@H](O)[C@H]1O	inactive	Active	inactive	–	inactive	Activity (CA-755): inactive
COc1c(OC)c(OC)c2c(=O)cc(-c3ccc4c(c3)OCO4)oc2c1OC	–	inactive	–	–	–	–
COc1cc(OC)cc(-c2cc(=O)c3c(OC)c(OC)c(OC)c(OC)c3o2)c1	inactive	–	–	3 mg/L (≈ 7.46 µM)	inactive	Activity (FV): Active
COc1cc(OC)c(-c2oc3ccccc3c(=O)c2O)cc1OC	inactive	–	inactive	5 mg/L (≈ 15.2 µM)	–	Activity (FV): inactive
O=c1c(O)c(-c2cc(O)c(O)c(O)c2)oc2cc(O)cc(O)c12 [MYRICETIN]	–	–	inactive	15 mg/L (≈ 47.1 µM)	–	Activity (B16): inactive
O=c1cc(-c2ccccc2)oc2ccc(O)cc12 [6-HYDROXYFLAVONE]	inactive	inactive	–	18 mg/L (≈ 75.6 µM)	Active	–
COC1(O)C(=O)c2ccccc2OC1(OC)c1ccc(C)cc1 (stereo unspecified)	–	inactive	inactive	–	–	–
COc1cc(O)c2c(=O)c(O[C@@H]3O[C@H](CO[C@@H]4O[C@@H](C)[C@H](O)[C@@H](O[C@@H]5O[C@@H](C)[C@H](O)[C@@H](O)[C@H]5O)[C@H]4O)[C@@H](O)[C@H](O)[C@H]3O)c(-c3ccc(O)c(O)c3)oc2c1	inactive	–	inactive	8.5 mg/L (≈ 11 µM)	inactive	Activity (CA-755): inactive
O=c1cc(-c2ccc(O)cc2)oc2c(O)c(O)c(O)cc12	–	inactive	–	22 mg/L (≈ 76.9 µM)	inactive	–
O=C1CC(c2ccccc2)Oc2ccccc21 (stereo unspecified)	inactive	–	inactive	–	–	Activity (CA-755): inactive; Activity (FV): inactive
O=c1c(-c2ccc3c(c2)OCO3)coc2cc(O)ccc12	–	inactive	inactive	–	–	–
COc1ccc(-c2oc3cc(O)cc(O)c3c(=O)c2OC)cc1O	–	–	–	2 mg/L (≈ 6.06 µM)	–	Activity (P388): inactive
COc1ccc2c(c1)C(=O)C(O)(OC)C(OC)(c1ccccc1)O2 (stereo unspecified)	–	inactive	inactive	–	–	–
O=c1c(O)c(-c2ccc(O)c(O)c2)oc2cc(O)cc(O)c12 [QUERCETIN]	–	Active	–	25 mg/L (≈ 82.7 µM)	–	–
COc1ccc(-c2cc(=O)c3c(OC)c(OC)c(OC)c(OC)c3o2)cc1OC [NOBILETIN]	–	inactive	–	3 mg/L (≈ 7.46 µM)	inactive	–
O=c1cc(-c2ccccc2)oc2cccc(O)c12 [5-HYDROXYFLAVONE]	inactive	Active	–	20 mg/L (≈ 83.9 µM)	inactive	–
O=c1c(O)c(-c2ccccc2)oc2ccccc12 [FLAVONOL]	inactive	–	inactive	0.2 mg/L (≈ 0.839 µM)	inactive	Activity (CA-755): inactive; Activity (B16): inactive; Activity (P388): inactive
